According to US20150216865A1, “METHODS OF TREATING A BRUTON'S TYROSINE KINASE DISEASE OR DISORDER” (Celgene Avilomics Research, Inc., priority 2012, published 2015):
“Also recorded” adds a separate entry of the source. Read-outs that look alike come from different tables or passages of the source.

Tests used:
male NOD mice [1] = experiment: NOD mouse model of Sjogren's syndrome, glycaemia / incidence of diabetes; assay type: in vivo
Experimental: Non-Obese Diabetic Mouse (NOD) Model of Sjogren's Syndrome. Male Non Obese Diabetic (NOD) mice from the KWS BioTest NOD colony and male BALB/c mice were randomly allocated to experimental groups and allowed to acclimatise for one week prior to the beginning of the study. From six weeks of age, animals were treated according to the administration schedule in Table 5, below. Each group consisted of n=12 animals. The administration volume was 15 ml/kg from 6-12 weeks of age. The administration volume was then decreased to 10 ml/kg from 13-20 weeks of age. The vehicle was distilled water pH 3.0-3.5 for Group 7. […] Glycaemia. From fourteen weeks of age, animals were monitored weekly for signs of hyperglycaemia. A blood sample was taken from a superficial vein and the blood glucose level was measured using Free Style Optium glucose test strips (Abbott) and a Boots glucose reader. Glycaemia. Blood glucose was monitored once per week from 14 weeks of age. Animals with glycaemia equal to or greater than 11 mM on two consecutive weekly readings were considered diabetic.

male NOD mice [2] = experiment: NOD mouse model, lachrymal gland secretion (cotton thread test); assay type: in vivo; settings: besylate
Experimental: Non-Obese Diabetic Mouse (NOD) Model of Sjogren's Syndrome. Male Non Obese Diabetic (NOD) mice from the KWS BioTest NOD colony and male BALB/c mice were randomly allocated to experimental groups and allowed to acclimatise for one week prior to the beginning of the study. From six weeks of age, animals were treated according to the administration schedule in Table 5, below. Each group consisted of n=12 animals. The administration volume was 15 ml/kg from 6-12 weeks of age. The administration volume was then decreased to 10 ml/kg from 13-20 weeks of age. The vehicle was distilled water pH 3.0-3.5 for Group 7. The vehicle was 0.5% methylcellulose and 0.25% Tween® 80 for all other groups.
Measurement of lachrymal gland secretion. Lachrymal gland secretion was measured every other week from six weeks of age using a cotton thread test. Briefly, animals were anaesthetised and a fluorescein-stained cotton thread was inserted under the eye lid in the medial canthus region and held in place for two minutes. Results for each group were graphed and presented with SEM's.
Lachrymal Gland Secretion. Lachrymal gland secretion was measured by the cotton thread test. Data are expressed as millimetres per gram bodyweight. Data from this readout are indicative of inflammatory changes in the lachrymal gland, but significant changes are typically only seen from weeks 18 onwards in NOD mice. Data were analysed by two-way ANOVA for repeated measures followed by Dunnett's post-test for multiple comparisons to the vehicle-treated group and presented as mean±SEM (FIG. 14).

[3] = Clinical single dose study in healthy human volunteers, pharmacokinetics; assay type: in vivo; settings: single oral 2 mg/kg
Experimental: (§1) Clinical Study: A double blind, placebo-controlled, ascending single dose, randomized study in normal healthy human volunteers was conducted at a single clinical research unit in accordance with Declaration of Helsinki principles. Informed consent statements were obtained from all subjects prior to inclusion in the study. Subjects were admitted to the unit 1 day before dosing and discharged 96 h after dosing.

[4] = test system: semi-established CIA Dba1 mice; experiment: Semi-established collagen induced arthritis (CIA) model; assay type: in vivo, mouse; settings: 3 mg/kg, 10 mg/kg or 30 mg/kg daily
Experimental: Semi-Established Collagen Induced Arthritis (CIA) Arthritis Model. Experiments were carried out at Bolder Biopath, Boulder, Colo. All experiments were carried out in compliance with regulations of the Institutional Animal Care and Use Committee and were conducted in accordance with principles and procedures dictated by the highest standards of humane animal care. Dba1 mice were injected at the base of the tail with 150 μL of Freund's Complete Adjuvant (Sigma) containing bovine type II collagen (Elastin Products, Owensville, Mo.) (2 mg/ml) on day 0 and again on day 21. Mice were randomized into treatment groups on study day 21, and treatment was initiated. Treatment continued daily (3 mg/kg, 10 mg/kg or 30 mg/kg QD at 24 hour intervals) through day 33, and mice were terminated on day 33 (animals 1-6) or day 34 (animals 7-12). Onset of arthritis occurred between study days 21 and 34. Clinical scores were assessed for each of the paws on study days 21-34 using the following scoring system: 0=normal, 1=one hind or fore paw joint affected or minimal diffuse erythema and swelling, 2=two hind or fore paw joints affected or mild diffuse erythema and swelling, 3=three hind or fore paw joints affected or moderate diffuse erythema and swelling, 4=marked diffuse erythema and swelling or =four digit joints affected, 5=severe diffuse erythema and severe swelling entire paw, unable to flex digits. Spleens and plasma were harvested at necropsy (day 33 for animals 1-6 and day 34 for animals 7-12) and paws were removed and fixed in formalin for histopathological analysis.

Btk = Btk (Homo sapiens, UniProt Q06187); experiment: Clinical single dose study, Btk occupancy in enriched B cells (covalent probe ELISA); assay type: in vivo
Chain of Btk (Q06187 whole entry): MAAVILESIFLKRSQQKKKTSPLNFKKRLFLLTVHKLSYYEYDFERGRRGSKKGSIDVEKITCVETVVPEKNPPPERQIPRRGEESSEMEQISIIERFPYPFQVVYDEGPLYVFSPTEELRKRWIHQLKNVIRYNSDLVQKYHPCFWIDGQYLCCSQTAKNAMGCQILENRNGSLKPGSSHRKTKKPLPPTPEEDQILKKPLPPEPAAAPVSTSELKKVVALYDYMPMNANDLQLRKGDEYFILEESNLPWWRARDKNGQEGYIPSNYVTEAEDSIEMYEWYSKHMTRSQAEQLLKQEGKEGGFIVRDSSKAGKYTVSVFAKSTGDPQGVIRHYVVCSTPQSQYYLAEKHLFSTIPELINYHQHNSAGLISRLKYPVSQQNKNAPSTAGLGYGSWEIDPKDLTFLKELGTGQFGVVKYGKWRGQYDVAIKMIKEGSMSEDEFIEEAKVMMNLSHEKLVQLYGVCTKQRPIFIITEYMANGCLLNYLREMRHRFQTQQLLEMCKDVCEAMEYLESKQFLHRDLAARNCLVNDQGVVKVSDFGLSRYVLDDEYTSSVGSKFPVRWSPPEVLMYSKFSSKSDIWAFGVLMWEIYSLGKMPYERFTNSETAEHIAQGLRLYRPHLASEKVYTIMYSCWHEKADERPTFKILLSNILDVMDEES
Experimental: Btk Target Site Occupancy ELISA: An ELISA method for the detection of free uninhibited Btk in mouse, rat, dog, monkey, and human lysates was developed at Celgene Avilomics Research and a validation of this method in human B cell lysate was performed by a CLIA Certified laboratory (Cambridge Biomedical Laboratories, Boston, Mass.) The parameters that were assessed included: accuracy, linearity, dilution, precision (intra and inter-assay), stability, reference range, freeze-thaw cycles, reportable range, specificity, sensitivity, and carryover. […] Standards and samples were transferred to a streptavidin-coated 96-well ELISA plate and mixed while shaking for 1 h at room temperature. […] After wash, goat α-mouse-HRP (1:5000 dilution in PBS+0.05% Tween-20+0.5% BSA) was added and incubated for 1 h at room temperature. The ELISA was developed with addition of tetramethyl benzidine (TMB) followed by Stop Solution and read at OD 450 nm.
as §1
Isolation of Enriched B Lymphocyte Population from Human Healthy Volunteers: 21 mL of human whole blood was collected from each subject at each time point into BD® Vacutainer® CPT Cell Preparation Tubes containing sodium heparin. […] Isolated cells were harvested into a clean 50 mL conical tube that was pooled by subject. […] Cell suspensions were diluted in 1 mL of red blood cell lysis buffer for 3 minutes at room temperature. […] The lysates were stored frozen at ≦−70° C. until Btk target site occupancy analysis by ELISA.

## C=CC(=O)Nc1cccc(Nc2nc(Nc3ccc(OCCOC)cc3)ncc2F)c1 [Compound 1 besylate, N-(3-(5-fluoro-2-(4-(2-methoxyethoxyl)phenylamino)pyrimidin-4-ylamino)phenyl)acrylamide besylate]
Male NOD mice [1]; 0.16 mg/kg ad libitum, age 18 weeks
  Incidence of Diabetes: 8% (1/12)
Male NOD mice [1]; 0.16 mg/kg ad libitum, age 19 weeks
  Incidence of Diabetes: 17% (2/12)
Male NOD mice [1]; 0.16 mg/kg ad libitum, age 20 weeks
  Incidence of Diabetes: 17% (2/12)
Male NOD mice [1]; 10 mg/kg SID, age 18 weeks
  Incidence of Diabetes: 17% (2/12)
Male NOD mice [1]; 10 mg/kg SID, age 19 weeks
  Incidence of Diabetes: 17% (2/12)
Male NOD mice [1]; 10 mg/kg SID, age 20 weeks
  Incidence of Diabetes: 18% (2/11)
Male NOD mice [1]; 30 mg/kg SID, age 18 weeks
  Incidence of Diabetes: 0
Male NOD mice [1]; 30 mg/kg SID, age 19 weeks
  Incidence of Diabetes: 0
Male NOD mice [1]; 30 mg/kg SID, age 20 weeks
  Incidence of Diabetes: 0
Male NOD mice [1]; 50 mg/kg BID, age 18 weeks
  Incidence of Diabetes: 0
Male NOD mice [1]; 50 mg/kg BID, age 19 weeks
  Incidence of Diabetes: 0
Male NOD mice [1]; 50 mg/kg BID, age 20 weeks
  Incidence of Diabetes: 0
Male NOD mice [1]; 100 mg/kg SID, age 18 weeks
  Incidence of Diabetes: 0
Male NOD mice [1]; 100 mg/kg SID, age 19 weeks
  Incidence of Diabetes: 0
Male NOD mice [1]; 100 mg/kg SID, age 20 weeks
  Incidence of Diabetes: 0
Male NOD mice [2]; 30 mg/kg SID, 10, 18 and 20 weeks of age
  lachrymal gland secretion vs vehicle: significantly higher; also recorded: statistically significant increase
Male NOD mice [2]; 50 mg/kg twice daily, 6, 8, 10, 18 and 20 weeks of age
  lachrymal gland secretion vs vehicle: significantly higher; also recorded: statistically significant increase
Male NOD mice [2]; 100 mg/kg SID, 8, 10, 12, 16, 18 and 20 weeks of age
  lachrymal gland secretion vs vehicle: significantly higher; also recorded: statistically significant increase
Male NOD mice [2]; ad libitum 0.16 mg/ml in drinking water, 10, 16, 18 and 20 weeks of age
  lachrymal gland secretion vs vehicle: significantly higher; also recorded: statistically significant increase
[3]; plasma, 6 subjects, read-out: mean maximum plasma concentration (Cmax)
  Cmax: 542 ng/mL
[3]; plasma, read-out: median terminal elimination half-life (converted)
  half-life: 1.9 h
[3]
  time to peak plasma concentrations: 30 to 120 min
[3]; all subjects
  plasma concentrations at 48 hours post dose: below the lower limit of quantification
[3]; limit of detection 0.1 ng/mL
  plasma concentrations within 24 hours post dose: near or below the lower limit of detection
[4]
  effect on clinical parameters of developing type II collagen arthritis: significant beneficial effect
Btk; 2 mg/kg, 4 hours, read-out: average cohort Btk occupancy (maximal)
  receptor occupancy at 2 mg/kg: > 97%
Btk; 2.0 mg/kg, all 6 subjects
  time complete or near-complete Btk occupancy was sustained: 8 to 24 h
Btk; 2.0 mg/kg, within 4 hours, read-out: Btk occupancy, 5 of 6 subjects
  receptor occupancy at 2 mg/kg: > 98%
Btk; 2.0 mg/kg, within 4 hours, read-out: Btk occupancy, 6th subject
  receptor occupancy at 2 mg/kg: 84%
Btk; after single oral 2.0 mg/kg
  average Btk re-synthesis rate: 3.0 pg Btk/ug protein/hour
Btk; within 96 hours
  free Btk protein levels recovered, % of pre-dose values: ~75%
